Results as given in publication PMC11507441, “Oilseed Cakes: A Promising Source of Antioxidant, and Anti-Inflammatory Agents—Insights from Lactuca sativa” (International Journal of Molecular Sciences, 2024).
In brackets after ≈: the same amount, converted by molar mass.

What was measured:
dermal inflammation = assay: Histopathological assessment of paw skin tissue (carrageenan model); format: in vivo, rat; settings: 5 h after carrageenan
Excerpt: Five hours following the carrageenan injection, tissue specimen samples from the paw skin tissue of every group under study were removed for histological examination. Prior to being submerged in paraffin blocks, they were fixed in a 10% formalin solution and stained with hematoxylin-eosin. Using a microtome, paraffin sections with a thickness of 5 µm were cut, and hematoxylin and eosin were frequently applied to the sections. Microscopically, these tissue slices were inspected. Consequently, the sections were examined under a light microscope; on the other hand, photos taken with a digital camera (Canon Power-shot D10) recorded the progression of paw oedema.

S. aureus = assay: Antimicrobial screening, zone of inhibition; format: cell-based; settings: Table 1
Protocol: The procedure was performed according to […] et al.. A comparison of the extract's zone of inhibition to that of a reference antibiotic's activity index was determined using the following equation:Activity index = (the inhibition zone of extract/the inhibition zone of the standard) × 100

[1] = tested on: SARS-CoV-2 main protease Mpro or 3CLpro; settings: cited from earlier work
MCF-7 cancer cell line = assay: Cytotoxic activity (MTT assay); format: cell-based
Protocol: (§1) The HPLC was performed in the Institute for Plant Biology, TU Braunschweig, using a Young Lin quaternary pump, vacuum degasser, column oven (40 °C), diode array detector (YL9160 PDA), and a Midas Spark Holland autosampler. UV spectra (λ max) were measured in the central laboratory of the Faculty of Pharmaceutical Science at Mansoura University using spectroscopic methanol with an ultraviolet-visible spectrophotometer (Shimadzu 1601 PC, version TCC-240A, Kyoto, Japan). The NMR unit of Mansoura University’s Faculty of Pharmacy obtained nuclear magnetic resonance spectra (^1H-NMR, ^13C-NMR, DEPT-Q, APT, HSQC, and HMBC) using a Bruker DRX 600 NMR spectrometer (600 and 150 MHz for ^1H and ^13C-NMR, respectively) and with the Bruker Corporation Avance III 400 spectrometer, which measures ^1H and ^13C-NMR at 400 and 100 MHz, respectively. The types of solvents that are used are CDCl3, CD3OD, and DMSO-d6. For normal phase chromatography, silica gel G 60–230 mesh (Merck, Darmstadt, Germany) was packed using a wet or dry method in the specified solvent. The purchase of Normal Human lung fibroblast (WI-38), hepatic cancer cell lines (HePG-2), and mammary gland (MCF-7) cell lines from ATCC was made possible by the Holding firm for biological goods and vaccines (VACSERA), which is based in Cairo, Egypt.
(§2) Using the MTT test, the inhibitory effects of substances on cell growth were ascertained using the cell lines compared to normal lung fibroblast cells (WI-38). The selectivity index was calculated via the Selectivity index (SI) equation: SI equals IC50 normal/IC50 cancer.

HepG-2 cancer cell line = assay: Cytotoxic activity (MTT assay); format: cell-based
Protocol: as §1, §2

TNF-α = TNF-α in rat paw tissue homogenate (carrageenan model); format: in vivo; settings: doses of 20 and 40 mg/kg; compared to the vehicle control group
Protocol: (§3) The levels of inflammatory mediators (IL-1β, TNF-α, and PGE2) in rat paw tissue homogenate were measured using the following Kits: Rat TNF-α (Tumor Necrosis Factor Alpha) ELISA Kit from Elabscience® Company, Houston, TX, USA, Interleukin 1 Beta (IL-1b) Organism Species: Rattus norvegicus (Rat) from Cloud Clone Crop Company and Rat PGE2 (Prostaglandin E2) ELISA Kit from Fine test® company Hubei, China. In addition, oxidative stress parameters in rat paw tissue homogenate were measured using superoxide dismutase, glutathione peroxidase, and catalase Kits from the Biodiagnostic company, Birmingham, UK.
(§4) Rats were slaughtered, and their paw tissues were gathered and weighed five hours after the carrageenan was administered. The tissues underwent processing after being fixed in 10% formalin. Rat paw tissue was homogenized, and its oxidative stress indices (SOD, CAT, and GPx) as well as the levels of inflammatory mediators (IL-1β, TNF-α, and PGE2) were measured.

GPx = GPx activity in rat paw tissue homogenate (carrageenan model); format: in vivo; settings: for GPx (U/gm Tissue): paw tissue 5 h after carrageenan
Protocol: as §3, §4

IL-1β = IL-1β in rat paw tissue homogenate (carrageenan model); format: in vivo; settings: doses of 20 and 40 mg/kg; compared to the vehicle control group
Protocol: as §3, §4

[2] = Cytotoxic activity (MTT assay), normal cells; format: cell-based; settings: human, WI-38 normal lung fibroblast cells; MTT; normal cells; read-out: In Vitro Cytotoxicity IC50 (µg/mL) WI-38
Protocol: as §1, §2

P. aeruginosa = assay: Antimicrobial screening, zone of inhibition; format: cell-based; settings: Table 1
Protocol: The procedure was performed according to Stylianakis et al.. A comparison of the extract’s zone of inhibition to that of a reference antibiotic’s activity index was determined using the following equation:Activity index = (the inhibition zone of extract/the inhibition zone of the standard) × 100

[3] = tested on: IL-6 production in TNF-a-stimulated MG-63 cells; settings: cited from earlier work
SOD = SOD activity in rat paw tissue homogenate (carrageenan model); format: in vivo; settings: for SOD (U/gm Tissue): paw tissue 5 h after carrageenan
Protocol: as §3, §4

[4] = 1 mg/mL, relative to ciprofloxacin
[5] = IC50 normal (WI-38)/IC50 cancer
[6] = 40 mg/kg, compared to the control group

NC(CO)C(O)c1ccc2c(c1)OCO2 (stereo not drawn) [Compound 1, 1,3-propanediol-2-amino-1-(3′,4′-methylenedioxyphenyl)]
Histopathology of paw skin (H&E) (dermal inflammation; Group 6, 40 mg/kg): substantial reduction in dermal inflammation | Histopathology of paw skin (H&E) (dermal inflammation; oral 20 mg/kg): moderate decrease in both inflammation and leukocyte infiltration | zone of inhibition at 1000 µg/mL (S. aureus; Staphylococcus aureus, isolated compounds 1 mg/mL, read-out: S. aureus Diameter of Inhibition Zone (mm)): 6.9 ± 0.1 mm | S. aureus %Activity Index (S. aureus; [4]): 28.9% | inhibitory activity against SARS-CoV-2 main protease [1]: moderate inhibitory activities | IC50 (MCF-7 cancer cell line; Homo sapiens, MCF7, MTT, read-out: In Vitro Cytotoxicity IC50 (µg/mL) MCF-7): 86.8 ± 3.9 µg/mL (≈ 411 µM) | Selectivity Index MCF-7 (MCF-7 cancer cell line; [5]): 0.71 | IC50 (HepG-2 cancer cell line; Homo sapiens, HepG2, MTT, read-out: In Vitro Cytotoxicity IC50 (µg/mL) HepG-2): 82.8 ± 4.1 µg/mL (≈ 392 µM) | Selectivity Index HepG2 (HepG-2 cancer cell line; [5]): 0.75 | TNF-α level in paw tissue (TNF-α): significant reduction | GPx activity restored (GPx; [6]): 73.17% | GPx (U/gm Tissue) (GPx; 20 mg/kg): 77.65 ± 3.18 U/gm Tissue | GPx (U/gm Tissue) (GPx; 40 mg/kg): 86.75 ± 6.01 U/gm Tissue | IL-1β level in paw tissue (IL-1β): significant reduction | IC50 [2]: 61.7 ± 3.4 µg/mL (≈ 292 µM) | zone of inhibition at 1000 µg/mL (P. aeruginosa; Pseudomonas aeruginosa, isolated compounds 1 mg/mL, read-out: P. aeruginosa Diameter of Inhibition Zone (mm)): 3.8 ± 0.2 mm | P. aeruginosa %Activity Index (P. aeruginosa; [4]): 16.5% | inhibition of IL-6 production [3]: strong inhibitory | SOD activity restored (SOD; [6]): 71.43% | SOD (U/gm Tissue) (SOD; 20 mg/kg): 118.35 ± 1.06 U/gm Tissue | SOD (U/gm Tissue) (SOD; 40 mg/kg): 135.05 ± 11.67 U/gm Tissue
